According to patent US8637537B2, “Serine/threonine kinase inhibitors” (Genentech, Inc., priority 2011, dated 2014):
Like-named read-outs stand apart in the source and are kept apart here.

How the values were obtained:
[1] = target: T1, human recombinant GST-PAK1-KD protein (Homo sapiens, UniProt Q13153); assay: GST-PAK1-KD (kinase domain) biochemical assay, microfluidic mobility shift
T1 construct: residues #249-545 of human PAK1, UniProtKP/Swiss Q13153; His6 (N); made in house; host or cells: Sf9 insect cells, pAcGP67 baculovirus expression vector
T1 sequence (Q13153 249-545): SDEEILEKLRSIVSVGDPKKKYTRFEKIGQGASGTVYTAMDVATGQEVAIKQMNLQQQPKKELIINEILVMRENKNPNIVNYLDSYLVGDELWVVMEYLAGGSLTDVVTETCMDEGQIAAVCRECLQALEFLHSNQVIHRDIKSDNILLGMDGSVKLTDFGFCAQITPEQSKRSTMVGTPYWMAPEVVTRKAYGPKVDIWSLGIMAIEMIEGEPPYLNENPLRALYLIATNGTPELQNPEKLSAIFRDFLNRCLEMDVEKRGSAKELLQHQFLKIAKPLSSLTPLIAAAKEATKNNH

[2] = system: group I PAKs (PAK1-3) in EBC1 cells, MEK1 phosphorylation at S298; assay: Cellular PAK assay: MEK1 (S298) phosphorylation in EBC1 cells, HTRF; assay type: cell-based; settings: Homo sapiens, EBC-1, 2 h treatment, Example 66
Method: Group I PAKs (PAK1-3) are activated upon binding to the Rho GTPases, Rac1 and Cdc42. […] The inhibition of group I PAKs in EBC1 cells is assessed by detecting changes in the level of MEK1 phosphorylation at S298 using homogenous time-resolved fluorescence (HTRF). […] Following inhibitor treatment, cells were lysed with 25 μL of 1× cellular kinase lysis buffer (Cisbio) containing 1× cellular kinase blocking reagent (Cisbio). Cellular lysis was carried out at 4° C. for 2 h with constant shaking before lysate (16 μL) was transferred to white 384-well ProxiPlates™ (Perkin Elmer).

[3] = GST-PAK1-KD Inhibition Assay - Example 65, read-out: PAK1 inhibition Ki
[4] = Table I, PAK1 Ki class, read-out: Ki
[5] = Table II, PAK1 Ki class, read-out: Ki

Compound	Ki [1, 3] [nM]	Ki [1, 4] [nM]	IC50 [2] [nM]	Ki ([1]; Ki, Table I, PAK1 Ki class) [nM]	Ki [1, 5] [nM]
Cc1cc(Nc2cc(C3CC3)[nH]n2)nc(N[C@@H](C)c2ccc3[nH]ccc3c2)n1 [I-7, (S)—N^2-(1-(1H-indol-5-yl)ethyl)-N^4-(5-cyclopropyl-1H-pyrazol-3-yl)-6-methylpyrimidine-2,4-diamine]	13.5	< 50	212	–	–
C[C@H](Nc1nccc(Nc2cc(C3CC3)[nH]n2)n1)c1ccc2[nH]ccc2c1 [I-8, (S)—N^2-(1-(1H-indol-5-yl)ethyl)-N^4-(5-cyclopropyl-1H-pyrazol-3-yl)pyrimidine-2,4-diamine]	15.1	–	133	< 50	–
FC(F)(F)c1cc(Nc2cc(C3CC3)[nH]n2)nc(NCc2ccc3[nH]cnc3c2)n1 [I-11, N^2-((1H-benzo[d]imidazol-5-yl)methyl)-N^4-(5-cyclopropyl-1H-pyrazol-3-yl)-6-(trifluoromethyl)pyrimidine-2,4-diamine]	33	< 50	917	–	–
c1cc(CNc2nccc(Nc3cc(C4CC4)[nH]n3)n2)c2nc[nH]c2c1 [I-39, N^2-((1H-benzo[d]imidazol-4-yl)methyl)-N^4-(5-cyclopropyl-1H-pyrazol-3-yl)pyrimidine-2,4-diamine]	74.7	50 to 250	205	–	–
C[C@H](Nc1nccc(Nc2cc(CC3CC3)[nH]n2)n1)c1ccc2[nH]cnc2c1 [I-45, (S)—N^2-(1-(1H-benzo[d]imidazol-5-yl)ethyl)-N^4-(5-(cyclopropylmethyl)-1H-pyrazol-3-yl)pyrimidine-2,4-diamine]	41	< 50	1200	–	–
c1cc(CNc2nccc(Nc3cc(C4CC4)[nH]n3)n2)c2cn[nH]c2c1 [I-59, N^2-((1H-Indazol-4-yl)methyl)-N^4-(5-cyclopropyl-1H-pyrazol-3-yl)pyrimidine-2,4-diamine]	37	< 50	104	–	–
C[C@H](Nc1nccc(Nc2cc([C@H]3CC3(F)F)[nH]n2)n1)c1ccc2[nH]cnc2c1 [I-62, N^2—((S)-1-(1H-benzo[d]imidazol-5-yl)ethyl)-N^4-(5-((R)-2,2-difluorocyclopropyl)-1H-pyrazol-3-yl)pyrimidine-2,4-diamine]	5.13	< 50	244	–	–
Clc1cnc(NCc2ccc3[nH]cnc3c2Cl)nc1Nc1cc(C2CC2)[nH]n1 [I-106, 5-chloro-N^2-((4-chloro-1H-benzo[d]imidazol-5-yl)methyl)-N^4-(5-cyclopropyl-1H-pyrazol-3-yl)pyrimidine-2,4-diamine]	14.8	< 50	1300	–	–
Clc1c(CNc2nccc(Nc3cc(C4CCCO4)[nH]n3)n2)ccc2[nH]cnc12 (centres unmarked) [I-109, N^2-((4-chloro-1H-benzo[d]imidazol-5-yl)methyl)-N^4-(5-(tetrahydrofuran-2-yl)-1H-pyrazol-3-yl)pyrimidine-2,4-diamine]	27.5	< 50	786	–	–
C[C@H](Nc1nccc(Nc2cc(C3CCC3)[nH]n2)n1)c1ccc2[nH]ccc2c1 [I-114, (S)—N^2-(1-(1H-indol-5-yl)ethyl)-N^4-(5-cyclobutyl-1H-pyrazol-3-yl)pyrimidine-2,4-diamine]	6.75	< 50	133	–	–
CN(Cc1ccc2[nH]cnc2c1Cl)c1nccc(Nc2cc(C3COC3)[nH]n2)n1 [II-2, N^2-[(4-Chloro-1H-benzimidazol-5-yl)methyl]-N^2-methyl-N4-[5-(oxetan-3-yl)-1H-pyrazol-3-yl]pyrimidine-2,4-diamine]	7.1	–	475	–	< 50
CCN(Cc1ccc2[nH]cnc2c1Cl)c1nccc(Nc2cc(C(C)C)[nH]n2)n1 [II-11, N^2-((4-Chloro-1H-benzo[d]imidazol-5-yl)methyl)-N^2-ethyl-N^4-(5-isopropyl-1H-pyrazol-3-yl)pyrimidine-2,4-diamine]	1.6	–	43	–	< 50
Fc1cnc(NCc2cc(Cl)cc3[nH]cnc23)nc1Nc1cc(C2CC2)[nH]n1 [II-23, N^2-((6-Chloro-1H-benzo[d]imidazol-4-yl)methyl)-N^4-(5-cyclopropyl-1H-pyrazol-3-yl)-5-fluoropyrimidine-2,4-diamine]	36	–	188	–	< 50
Cc1n[nH]c2cc(Cl)cc(CNc3ncc(F)c(Nc4cc(C5CC5)[nH]n4)n3)c12 [II-24, N^2-((6-Chloro-3-methyl-1H-indazol-4-yl)methyl)-N^4-(5-cyclopropyl-1H-pyrazol-3-yl)-5-fluoropyrimidine-2,4-diamine]	41.3	–	339	–	< 50
CCOc1cc(Nc2ccnc(N(C)Cc3ccc4[nH]cnc4c3Cl)n2)n[nH]1 [II-33, N^2-((4-Chloro-1H-benzo[d]imidazol-5-yl)methyl)-N^4-(5-ethoxy-1H-pyrazol-3-yl)-N^2-methylpyrimidine-2,4-diamine]	97.9	–	648	–	50 to 250
CN(Cc1ccc2nc[nH]c2c1Cl)c1nccc(Nc2cc(CCC#N)[nH]n2)n1 [II-45, 3-(3-(2-(((4-Chloro-3H-benzo[d]imidazol-5-yl)methyl)(methyl)amino)pyrimidin-4-ylamino)-1H-pyrazol-5-yl)propanenitrile]	165	–	1900	–	50 to 250
CCN(Cc1ccc2[nH]cnc2c1Cl)c1nccc(Nc2cc([C@@H]3C[C@@H]3F)[nH]n2)n1 [II-51, N^2-((4-chloro-1H-benzo[d]imidazol-5-yl)methyl)-N^2-ethyl-N^4-(5-((1S,2S)-2-fluorocyclopropyl)-1H-pyrazol-3-yl)pyrimidine-2,4-diamine]	2.5	–	66.1	–	< 50
CC(CO)N(Cc1cc(F)cc2[nH]ncc12)c1nccc(Nc2cc(C3CC3)[nH]n2)n1 (centres unmarked) [II-56, 2-((4-((5-cyclopropyl-1H-pyrazol-3-yl)amino)pyrimidin-2-yl)((6-fluoro-1H-indazol-4-yl)methyl)amino)propan-1-ol]	4.2	–	70.8	–	< 50
Fc1cc(CN(CCN2CCCC2)c2nccc(Nc3cc(C4CC4)[nH]n3)n2)c2cn[nH]c2c1 [II-59, N^4-(5-cyclopropyl-1H-pyrazol-3-yl)-N^2-((6-fluoro-1H-indazol-4-yl)methyl)-N^2-(2-(pyrrolidin-1-yl)ethyl)pyrimidine-2,4-diamine]	6	–	257	–	< 50
CN(C)CCN(Cc1cc(F)cc2[nH]ncc12)c1nccc(Nc2cc([C@@H]3C[C@@H]3F)[nH]n2)n1 [II-73, N^2-(2-(dimethylamino)ethyl)-N^2-((6-fluoro-1H-indazol-4-yl)methyl)-N^4-(5-((1S,2S)-2-fluorocyclopropyl)-1H-pyrazol-3-yl)pyrimidine-2,4-diamine]	13	–	419	–	< 50
COc1cc(CNc2nccc(Nc3cc(C4CC4)[nH]n3)n2)c2cn[nH]c2c1 [II-74, N^4-(5-cyclopropyl-1H-pyrazol-3-yl)-N^2-((6-methoxy-1H-indazol-4-yl)methyl)pyrimidine-2,4-diamine]	13.6	–	189	–	< 50
Fc1cc(CNc2ncc(Cl)c(Nc3cc(C4CC4)[nH]n3)n2)c2cn[nH]c2c1 [II-106, 5-chloro-N^4-(5-cyclopropyl-1H-pyrazol-3-yl)-N^2-((6-fluoro-1H-indazol-4-yl)methyl)pyrimidine-2,4-diamine]	–	–	–	–	50 to 250
CCc1cc(Nc2ccnc(NCc3cc(F)cc4[nH]ncc34)n2)n[nH]1 [II-107, N^4-(5-ethyl-1H-pyrazol-3-yl)-N^2-((6-fluoro-1H-indazol-4-yl)methyl)pyrimidine-2,4-diamine]	–	–	–	–	50 to 250
Fc1cnc(N(Cc2ccc3[nH]cnc3c2)C2CCCC2)nc1Nc1cc(C2CC2)[nH]n1 [II-108, N^2-((1H-benzo[d]imidazol-5-yl)methyl)-N^2-cyclopentyl-N^4-(5-cyclopropyl-1H-pyrazol-3-yl)-5-fluoropyrimidine-2,4-diamine]	–	–	–	–	50 to 250
Fc1cnc(NCc2cc(C(F)(F)F)cc3[nH]ncc23)nc1Nc1cc(C2CC2)[nH]n1 [II-109, N^4-(5-cyclopropyl-1H-pyrazol-3-yl)-5-fluoro-N^2-((6-(trifluoromethyl)-1H-indazol-4-yl)methyl)pyrimidine-2,4-diamine]	–	–	–	–	250 to 1000
CN(C)CCN(Cc1cc(F)cc2[nH]ncc12)c1nccc(Nc2cc(C3CC3)[nH]n2)n1 [II-110, N^4-(5-cyclopropyl-1H-pyrazol-3-yl)-N^2-(2-(dimethylamino)ethyl)-N^2-((6-fluoro-1H-indazol-4-yl)methyl)pyrimidine-2,4-diamine]	–	–	–	–	< 50
CCN(Cc1ccc2[nH]cnc2c1Cl)c1ncc(F)c(Nc2cc([C@@H]3C[C@@H]3F)[nH]n2)n1 [II-111, N^2-((4-chloro-1H-benzo[d]imidazol-5-yl)methyl)-N^2-ethyl-5-fluoro-N^4-(5-((1S,2S)-2-fluorocyclopropyl)-1H-pyrazol-3-yl)pyrimidine-2,4-diamine]	–	–	–	–	< 50
Clc1c[nH]c2cccc(CNc3nccc(Nc4cc(C5CC5)[nH]n4)n3)c12 [II-112, N^2-((3-chloro-1H--indol-4-yl)methyl)-N^4-(5-cyclopropyl-1H-pyrazol-3-yl)pyrimidine-2,4-diamine]	–	–	–	–	< 50
CN(Cc1cc2nc[nH]c2cc1F)c1nccc(Nc2cc(C3CC3)[nH]n2)n1 [II-113, N^2-((6-fluoro-1H-benzo[d]imidazol-5-yl)methyl)-N^4-(5-cyclopropyl-1H-pyrazol-3-yl)-N^2-methylpyrimidine-2,4-diamine]	–	–	–	–	< 50
